Tested on: 422866-222-R5-J1-PDC complex spheroid viability
Assay: Anticancer human tumor 422866-222-R5-J1-PDC patient-derived pancreatic adenocarcinoma cell line growth inhibition [POLQ]
Details: for IC50: curve of first compound; for viability, T/C: stronger effect = lower value
In short: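 Three-cell-type spheroids modelling solid tumor plus stroma served as the readout system; POL inhibitors were tested individually and in combination, concentration ranges set by clinical Cmax where known.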

[1] = second compound 0.0316 µM, first compound 0.0316 µM
[2] = second compound 0.0316 µM, first compound 0.1 µM
[3] = second compound 0.0316 µM, first compound 0.316 µM
[4] = second compound 0.0316 µM, first compound 1 µM
[5] = second compound 0.1 µM, first compound 0.0316 µM
[6] = second compound 0.1 µM, first compound 0.1 µM
[7] = second compound 0.1 µM, first compound 0.316 µM
[8] = second compound 0.1 µM, first compound 1 µM
[9] = second compound 0.316 µM, first compound 0.0316 µM
[10] = second compound 0.316 µM, first compound 0.1 µM
[11] = second compound 0.316 µM, first compound 0.316 µM
[12] = second compound 0.316 µM, first compound 1 µM
[13] = second compound 1 µM, first compound 0.0316 µM
[14] = second compound 1 µM, first compound 0.1 µM
[15] = second compound 1 µM, first compound 0.316 µM
[16] = second compound 1 µM, first compound 1 µM
[17] = second compound 3.16 µM, first compound 0.0316 µM
[18] = second compound 3.16 µM, first compound 0.1 µM
[19] = second compound 3.16 µM, first compound 0.316 µM
[20] = second compound 3.16 µM, first compound 1 µM
[21] = second compound 10 µM, first compound 0.0316 µM
[22] = second compound 10 µM, first compound 0.1 µM
[23] = second compound 10 µM, first compound 0.316 µM
[24] = second compound 10 µM, first compound 1 µM
[25] = second compound 0.0316 µM, first compound 0.00316 µM
[26] = second compound 0.0316 µM, first compound 0.01 µM
[27] = second compound 0.1 µM, first compound 0.00316 µM
[28] = second compound 0.1 µM, first compound 0.01 µM
[29] = second compound 0.316 µM, first compound 0.00316 µM
[30] = second compound 0.316 µM, first compound 0.01 µM
[31] = second compound 1 µM, first compound 0.00316 µM
[32] = second compound 1 µM, first compound 0.01 µM
[33] = second compound 3.16 µM, first compound 0.00316 µM
[34] = second compound 3.16 µM, first compound 0.01 µM
[35] = second compound 10 µM, first compound 0.00316 µM
[36] = second compound 10 µM, first compound 0.01 µM
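Also: spheroids exposed to compounds for one week before readout.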
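For viability, T/C in this document: percent of DMSO vehicle wells luminescence so 100% = untreated viability.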

`COc1ccc([C@@H](O)c2cc(-c3ncnc4cc(N5CCOCC5)ccc34)c(F)cc2Cl)nn1` + Cc1cccc(N(C)C(=O)C2C(O)CCN2c2nc(C)cc(C(F)(F)F)c2C#N)c1 gave an IC50 (second compound 0.0316 µM) of 2600 nM, an IC50 (second compound 0.1 µM) of 4620 nM and an IC50 (second compound 0.316 µM) of 2420 nM. For the same compound, the IC50 (second compound 1 µM) was 1920 nM, the IC50 (second compound 3.16 µM) was 1650 nM and the IC50 (second compound 10 µM) was 2280 nM. The viability, T/C [1] was 91.6%, the viability, T/C [2] was 92.2% and the viability, T/C [3] was 77.4%. It also gave a viability, T/C [4] of 62.1%, a viability, T/C (second compound 0.0316 µM, first compound 3.16 µM) of 49.1% and a viability, T/C (second compound 0.0316 µM, first compound 10 µM) of 35.5%. The viability, T/C [5] was 92%, the viability, T/C [6] was 81.3% and the viability, T/C [7] was 83.2%. For the same compound, the viability, T/C [8] was 64.5%, the viability, T/C (second compound 0.1 µM, first compound 3.16 µM) was 54.5% and the viability, T/C (second compound 0.1 µM, first compound 10 µM) was 42.3%. For the same compound, the viability, T/C [9] was 108%, the viability, T/C [10] was 86.3% and the viability, T/C [11] was 70.9%. For the same compound, the viability, T/C [12] was 61.3%, the viability, T/C (second compound 0.316 µM, first compound 3.16 µM) was 43.9% and the viability, T/C (second compound 0.316 µM, first compound 10 µM) was 41.4%. The viability, T/C [13] was 89.9%, the viability, T/C [14] was 81.1% and the viability, T/C [15] was 85.9%. It also gave a viability, T/C [16] of 58.5%, a viability, T/C (second compound 1 µM, first compound 3.16 µM) of 44.6% and a viability, T/C (second compound 1 µM, first compound 10 µM) of 33.3%. It also gave a viability, T/C [17] of 79.8%, a viability, T/C [18] of 90.7% and a viability, T/C [19] of 80.3%. It also gave a viability, T/C [20] of 56.4%, a viability, T/C (second compound 3.16 µM, first compound 3.16 µM) of 43.1% and a viability, T/C (second compound 3.16 µM, first compound 10 µM) of 37.1%. The viability, T/C [21] was 93.3%, the viability, T/C [22] was 83.8% and the viability, T/C [23] was 73.5%. The viability, T/C [24] was 59%, the viability, T/C (second compound 10 µM, first compound 3.16 µM) was 46% and the viability, T/C (second compound 10 µM, first compound 10 µM) was 37.6%.

`COc1cccc(OCCCN)c1-c1cc(Nc2cnc(C#N)cn2)n[nH]1` + Cc1cccc(N(C)C(=O)C2C(O)CCN2c2nc(C)cc(C(F)(F)F)c2C#N)c1 showed an IC50 (second compound 0.0316 µM) of 5.54 nM, an IC50 (second compound 0.1 µM) of 6.74 nM and an IC50 (second compound 0.316 µM) of 6.63 nM. The IC50 (second compound 1 µM) was 6.92 nM, the IC50 (second compound 3.16 µM) was 5.11 nM and the IC50 (second compound 10 µM) was less than 3.16 nM. It also gave a viability, T/C [25] of 65.4%, a viability, T/C [26] of 30.4% and a viability, T/C [1] of 30.1%. For the same compound, the viability, T/C [2] was 26.9%, the viability, T/C [3] was 36.6% and the viability, T/C [4] was 43.4%. It also gave a viability, T/C [27] of 72.7%, a viability, T/C [28] of 37.7% and a viability, T/C [5] of 31.4%. The viability, T/C [6] was 27.3%, the viability, T/C [7] was 45.7% and the viability, T/C [8] was 45.6%. The viability, T/C [29] was 74.4%, the viability, T/C [30] was 32.5% and the viability, T/C [9] was 35%. The viability, T/C [10] was 30.1%, the viability, T/C [11] was 51.8% and the viability, T/C [12] was 32.2%. It also gave a viability, T/C [31] of 77.7%, a viability, T/C [32] of 37.8% and a viability, T/C [13] of 28.8%. It also gave a viability, T/C [14] of 32.5%, a viability, T/C [15] of 25.9% and a viability, T/C [16] of 43.8%. The viability, T/C [33] was 58.3%, the viability, T/C [34] was 39.3% and the viability, T/C [17] was 30.4%. For the same compound, the viability, T/C [18] was 35.7%, the viability, T/C [19] was 29.8% and the viability, T/C [20] was 50.1%. It also gave a viability, T/C [35] of 68.1%, a viability, T/C [36] of 30.3% and a viability, T/C [21] of 36.4%. For the same compound, the viability, T/C [22] was 30.5%, the viability, T/C [23] was 35.9% and the viability, T/C [24] was 54.9%.

`Cn1ncnc1[C@H]1c2n[nH]c(=O)c3cc(F)cc(c23)N[C@@H]1c1ccc(F)cc1` + Cc1cccc(N(C)C(=O)C2C(O)CCN2c2nc(C)cc(C(F)(F)F)c2C#N)c1 gave an IC50 (second compound 0.0316 µM) greater than 100 nM, an IC50 (second compound 0.1 µM) greater than 100 nM and an IC50 (second compound 0.316 µM) greater than 100 nM. The IC50 (second compound 1 µM) was greater than 100 nM, the IC50 (second compound 3.16 µM) was greater than 100 nM and the IC50 (second compound 10 µM) was greater than 100 nM. For the same compound, the viability, T/C (second compound 0.0316 µM, first compound 0.000316 µM) was 93.3%, the viability, T/C (second compound 0.0316 µM, first compound 0.001 µM) was 97.3% and the viability, T/C [25] was 93.7%. It also gave a viability, T/C [26] of 89%, a viability, T/C [1] of 76.5% and a viability, T/C [2] of 82.1%. For the same compound, the viability, T/C (second compound 0.1 µM, first compound 0.000316 µM) was 116%, the viability, T/C (second compound 0.1 µM, first compound 0.001 µM) was 95.2% and the viability, T/C [27] was 90%. It also gave a viability, T/C [28] of 93.2%, a viability, T/C [5] of 81.8% and a viability, T/C [6] of 65.9%. The viability, T/C (second compound 0.316 µM, first compound 0.000316 µM) was 108%, the viability, T/C (second compound 0.316 µM, first compound 0.001 µM) was 97.3% and the viability, T/C [29] was 90.6%. It also gave a viability, T/C [30] of 88.4%, a viability, T/C [9] of 81.4% and a viability, T/C [10] of 83.1%. The viability, T/C (second compound 1 µM, first compound 0.000316 µM) was 93.9%, the viability, T/C (second compound 1 µM, first compound 0.001 µM) was 90.2% and the viability, T/C [31] was 93.6%. The viability, T/C [32] was 89%, the viability, T/C [13] was 79.3% and the viability, T/C [14] was 77.2%. It also gave a viability, T/C (second compound 3.16 µM, first compound 0.000316 µM) of 95.6%, a viability, T/C (second compound 3.16 µM, first compound 0.001 µM) of 101% and a viability, T/C [33] of 94.2%. It also gave a viability, T/C [34] of 77.3%, a viability, T/C [17] of 87.4% and a viability, T/C [18] of 91.9%. The viability, T/C (second compound 10 µM, first compound 0.000316 µM) was 95.1%, the viability, T/C (second compound 10 µM, first compound 0.001 µM) was 97.7% and the viability, T/C [35] was 102%. For the same compound, the viability, T/C [36] was 72.5%, the viability, T/C [21] was 82.9% and the viability, T/C [22] was 83.2%.
